Test results taken from patent publication US9156906B2, “Glycopeptides and methods of making and using them” (THE REGENTS OF THE UNIVERSITY OF CALIFORNIA, priority 2008, dated 2015).
Where a SMILES comes first, the peptide text is derived from it. Where no end group is shown, it is not given here. The star is where a group is joined. X1 = CC(=O)N[C@@H]1[C@@H](O[C@@H]2O[C@H](CO)[C@H](O)[C@H](O)[C@H]2O)[C@@H](O)[C@@H](CO)O[C@@H]1*; GalNAc = N-acetylgalactosamine (GalNAc, 2-acetamido-2-deoxy-D-galactopyranose); αGalNAc = CC(=O)N[C@@H]1[C@@H](O)[C@@H](O)[C@@H](CO)O[C@@H]1*

Tests used:
A2 class I MHC molecules = assay: A2 binding affinity of glycopeptides; set-up: species or system human
C57BL/6 mice = assay: Immunization of wild type C57BL/6 mice, generation of cytotoxic T cells; type: in vivo, mouse; conditions: wild type C57BL/6 mice (H-2^b)
Experimental: These studies were performed in vivo by injecting Tn-containing glycopeptides in: 1) wild type mice (C57BL/6, H-2^b); and 2) MUC1/MT double transgenic mice (H-2^b) that develop spontaneous tumors expressing the Tn carbohydrate molecule within 12 weeks of age.

[1] = system: β-Gal-[1->3]-α-GalNAc-O-specific T cell clones; assay: 51Cr release cytotoxicity assay with TF-specific CTL clones on antigen-pulsed EL-4 targets (fine specificity, cross-reactivity); type: cell-based, mouse; conditions: clones B1, C3, D4, 5:1 E/T
Experimental: CTL clones were generated in C57BL/6 mice (H-2^b) immunized with a K^b-restricted designer alanine-rich glycopeptide sequence that contained TF, sequence: • AIIA(β-Gal-[1->3]-α-GalNAc-O-serine)FAAL
TF-specific CTL clones were tested for the capacity to cross-react to a glycopeptide with a completely unrelated sequence but carrying the sugar at the same position (5 within a 9mer). For this analysis, we designed a modified Sendai virus immunodominant epitope NP 324-332 (5N->5S-TF), sequence: • FAPG (β-Gal-[1->3]-α-GalNAc-O-S)YPAL This epitope is an ideal proof concept because when bonded to K^b class I MHC molecules it exposes position 5 as a major TcR contact.
To define the role of the glycosylated amino acid linker for sugar recognition by T cells, the same T cell clones were also tested for cross-reactivity to three alanine-rich glycopeptides with identical sequences as the immunogen: AIIA(β-Gal-[1->3]-α-GalNAc-O-serine)FAAL, but where TF was linked to different amino acid residues.
T cells were studied with a classic ^51Cr release cytotoxicity assay at a 5:1 effector/target (E/T) ratio. The EL-4 thymoma cell line (H-2)^b, class II MHC negative, was used as the target in these experiments. The cytolytic response to EL-4 cells in the absence of glycopeptides (background) was also assayed, and subtracted, to quantify the net specific lysis. […]

MUC1/MT transgenic mice = assay: Glycopeptide vaccination of tumor bearing MUC1/MT transgenic mice, CTL activity by 51Cr release on EL-4; conditions: MUC1/MT mice 14, 18, 24 weeks old; glycopeptide in IFA; EL-4 targets
Experimental: In these experiments, MUC1/MT mice have been chosen according to age and tumor development.
Seven days after priming, mice were sacrificed. Splenocytes from each experimental group were pooled and stimulated in vitro in the presence of the glycopeptide that was used as immunogen and irradiated B cell blasts as antigen presenting cells (APCs). After 5 days in culture, cells were collected, purified over Ficoll gradient, and T cell blasts were cultured in complete RPMI conditioned with supernatant from ConA-activated splenocytes as an IL2 source. Two days later (day 7 in culture) T cells were tested for CTL activity.
Carbohydrate and peptide specificity were studied in a standard ^51Cr release assay using the lymphoma EL-4 (H-2^b) cell line as target at different effector: target ratios (E/T) in duplicate, with and without antigens. […] Net specific lysis has been calculated by subtracting the cytolytic response to EL-4 cells alone without antigens defined as background. Data were calculated as % cytotoxicity=[(sample-spontaneous release)/(maximum release-spontaneous release)]×100.
Specificity of primary CTL cultures tested in a ^51Cr release assay is shown. […] EL-4 cells plated with T cell blasts in the absence of antigens have been assessed in duplicate at every E/T ratio to determine the extent of non-specific lysis. […]

[2] = system: naïve CD8+ T cells of healthy A2 donors; assay: In vitro priming of naive cytotoxic T cells from PBMC of normal A2+ donors, 51Cr release on T2 cells; type: cell-based, human; conditions: for number of specific CTL lines out of the 12, Donor 1 / number of specific CTL lines out of the 12, Donor 2 / number of specific CTL lines out of the 12, Donor 3 / number of specific CTL lines out of the 12, Donor 4 / number of specific CTL lines out of the 12, Donor 5 / number of specific CTL lines out of the 12, Donor 6 / number of specific CTL lines out of the 12, Donor 7: net specific lysis ≧20%, day 10, T2 targets 3:1 E/T; for Total number of specific CTL lines: sum over 7 donors;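 on all read-outs here: CTL lines primed by co-culturing PBMC with autologous antigen-pulsed mature dendritic cells, 12 lines per antigen, lysis net of unpulsed T2 cell background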
Experimental: Seven A2+ healthy individuals, never exposed to HBV or HIV, between ages 40 and 57, were included in the study. Autologous, antigen-pulsed, mature dendritic cells (DC) were used as antigen presenting cells (APCs) for the in vitro priming. Autologous DC were cultured with granulocyte/macrophage colony stimulating factor (GM-CSF) (kindly provided by Kirin, Japan) and interleukin (IL) 4 (Peprotech, Rocky Hill, N.J.).
DC were previously pulsed for 2 hours with glycopeptides(s) or peptide(s). Each well defined an individual CTL line.
By using the culture conditions and IL2 regimen optimized over several years in our laboratory, the large majority of the PBMC in culture are T cells at day 10. CD8+ T cells represent the majority.
T cell cultures were tested for specificity at day 10 in a ^51Cr release assay. T2 cells (A2) were used as targets at 3:1 E/T ratio. T cell lines primed in vitro with glycopeptides were tested for the ability to recognize T2 cells pulsed with the glycopeptides, or the peptide backbones, or to untreated T2 cells (background control). Peptide-primed T cell lines were also tested for their ability to respond to peptides and cross-react with the corresponding GalNAc-O-S modified sequence.
CTL lines showing a net specific lysis ≧20% were considered specific. Carbohydrate recognition was defined as a specific response to the glycopeptides, after subtracting the background and the specific response to the corresponding peptide backbone.

[3] = clear solution with no visible particulates
From the text: Solubility is defined as a clear solution with no visible particulates.

cancer patients = conditions: variety of different formulations; cited from earlier work

Molecule: CC(=O)N[C@H]1[C@@H](OC[C@H](NC(=O)CNC(=O)[C@H](CC(C)C)NC(=O)[C@H](C)N)C(=O)N[C@H](C(=O)N[C@@H](C)C(=O)N2CCC[C@H]2C(=O)N2CCC[C@H]2C(=O)N[C@H](C(=O)O)C(C)C)[C@@H](C)O)O[C@H](CO)[C@H](O)[C@@H]1O [ALG(Tn-S)TAPPV]
- A2 affinity (in words) (A2 class I MHC molecules): very high affinity

Molecule: CC[C@H](C)[C@H](NC(=O)[C@H](C)N)C(=O)N[C@H](C(=O)N[C@@H](C)C(=O)N[C@@H](CO[C@H]1O[C@H](CO)[C@H](O)[C@H](O[C@@H]2O[C@H](CO)[C@H](O)[C@H](O)[C@H]2O)[C@H]1NC(C)=O)C(=O)N[C@@H](Cc1ccccc1)C(=O)N[C@@H](C)C(=O)N[C@@H](C)C(=O)N[C@@H](CC(C)C)C(=O)O)[C@@H](C)CC [AIIA(β-Gal-[1->3]-α-GalNAc-O-serine)FAAL] (H-AIIAS(X1)FAAL-OH; N-terminus and C-terminus assumed)
- cytotoxic T cell response generated by immunization (C57BL/6 mice): generate primary and memory TF-specific cytotoxic T cells in C57BL/6 mice in the absence of Th
- cytolytic response of TF-specific CTL clones to antigen (51Cr release, net lysis) [1]: high affinity/avidity

Molecule: AIIA(GalNAc-O-S)FAAL (AIIAS(GalNAc)FAAL)
- CTL activity after vaccination (MUC1/MT transgenic mice): Strong CTL activity

Molecule: CC(=O)N[C@H]1[C@@H](OC[C@H](NC(=O)[C@H](CO)NC(=O)[C@H](Cc2ccc(O)cc2)NC(=O)[C@H](CC(C)C)NC(=O)CN)C(=O)N[C@H](C(=O)N[C@H](C(=O)N2CCC[C@H]2C(=O)N[C@H](C(=O)O)C(C)C)C(C)C)[C@@H](C)O)O[C@H](CO)[C@H](O)[C@@H]1O [GLYS(GalNAc-O-S)TVPV]
- number of specific CTL lines out of the 12, Donor 1 [2]: 6
- number of specific CTL lines out of the 12, Donor 2 [2]: 2
- number of specific CTL lines out of the 12, Donor 3 [2]: 1
- number of specific CTL lines out of the 12, Donor 4 [2]: 1
- number of specific CTL lines out of the 12, Donor 5 [2]: 4
- number of specific CTL lines out of the 12, Donor 6 [2]: 4
- number of specific CTL lines out of the 12, Donor 7 [2]: 2
- Total number of specific CTL lines [2]: 20

Molecule: CC(=O)N[C@H]1[C@@H](OC[C@H](NC(=O)[C@@H]2CCCN2C(=O)[C@H](CC(C)C)NC(=O)[C@@H](N)Cc2ccccc2)C(=O)N[C@@H](CC(=O)O)C(=O)N[C@@H](Cc2ccccc2)C(=O)N[C@@H](Cc2ccccc2)C(=O)N2CCC[C@H]2C(=O)N[C@@H](CO)C(=O)N[C@H](C(=O)O)C(C)C)O[C@H](CO)[C@H](O)[C@@H]1O
- number of specific CTL lines out of the 12, Donor 1 [2]: 5
- number of specific CTL lines out of the 12, Donor 2 [2]: 5
- number of specific CTL lines out of the 12, Donor 3 [2]: 1
- number of specific CTL lines out of the 12, Donor 4 [2]: 3
- number of specific CTL lines out of the 12, Donor 5 [2]: 4
- number of specific CTL lines out of the 12, Donor 6 [2]: 2
- number of specific CTL lines out of the 12, Donor 7 [2]: 4
- Total number of specific CTL lines [2]: 24

Molecule: CC(=O)N[C@H]1[C@@H](O[C@H](C)[C@H](NC(=O)[C@H](CC(=O)O)NC(=O)[C@@H]2CCCN2C(=O)[C@H](Cc2ccccc2)NC(=O)[C@H](CC(C)C)NC(=O)[C@@H](N)Cc2ccccc2)C(=O)N[C@@H](CCCNC(=N)N)C(=O)N[C@@H](C)C(=O)N[C@H](C(=O)O)C(C)C)O[C@H](CO)[C@H](O)[C@@H]1O [FLFPD(GalNAc-T)RAV] (H-FLFPDT(αGalNAc)RAV-OH; N-terminus and C-terminus assumed)
- solubility when diluted in Dimethylsulfoxide (DMSO) [3]: very soluble
- A2 affinity (in words) (A2 class I MHC molecules): very high affinity

Molecule: CC(=O)N[C@H]1[C@@H](O[C@H](C)[C@H](NC(=O)[C@H](CC(=O)O)NC(=O)[C@@H]2CCCN2C(=O)[C@H](CC(C)C)NC(=O)[C@@H](N)Cc2ccccc2)C(=O)N[C@@H](CCCNC(=N)N)C(=O)N[C@@H](Cc2ccccc2)C(=O)N[C@@H](Cc2ccc(O)cc2)C(=O)N[C@H](C(=O)O)C(C)C)O[C@H](CO)[C@H](O)[C@@H]1O [FLPD(GalNAc-T)RFYV] (H-FLPDT(αGalNAc)RFYV-OH; N-terminus and C-terminus assumed)
- solubility when diluted in Dimethylsulfoxide (DMSO) [3]: very soluble
- A2 affinity (in words) (A2 class I MHC molecules): very high affinity

Molecule: CC(=O)N[C@H]1[C@@H](OC[C@H](NC(=O)[C@H](C)NC(=O)[C@H](CC(C)C)NC(=O)[C@H](C)N)C(=O)N[C@@H](C)C(=O)N[C@@H](C)C(=O)N[C@@H](C)C(=O)N[C@@H](C)C(=O)N[C@H](C(=O)O)C(C)C)O[C@H](CO)[C@H](O)[C@@H]1O [ALA(GALNAc-O-S)SAAAAV]
- A2 affinity (in words) (A2 class I MHC molecules): affinity slightly higher than the corresponding peptide but still efficiently

Molecule: CC(=O)N[C@H]1[C@@H](OC[C@H](NC(=O)[C@@H](NC(=O)[C@H](CC(C)C)NC(=O)[C@@H](N)[C@@H](C)O)[C@@H](C)O)C(=O)N[C@@H](CS)C(=O)N[C@@H](CC(N)=O)C(=O)N[C@H](C(=O)N[C@@H](CO)C(=O)N[C@H](C(=O)O)C(C)C)[C@@H](C)O)O[C@H](CO)[C@H](O)[C@@H]1O [TLT(GalNAc-O-S)CNTSV] (H-TLTS(αGalNAc)CNTSV-OH; N-terminus and C-terminus assumed)
- number of specific CTL lines out of the 12, Donor 1 [2]: 7
- number of specific CTL lines out of the 12, Donor 2 [2]: 4
- number of specific CTL lines out of the 12, Donor 3 [2]: 0
- number of specific CTL lines out of the 12, Donor 4 [2]: 1
- number of specific CTL lines out of the 12, Donor 5 [2]: 5
- number of specific CTL lines out of the 12, Donor 6 [2]: 1
- number of specific CTL lines out of the 12, Donor 7 [2]: 5
- Total number of specific CTL lines [2]: 23

Molecule: CC(=O)N[C@@H]1[C@@H](O)[C@@H](O)[C@@H](CO)O[C@@H]1O [Tn, α-GalNAc]
- safety and tolerability in clinical trials (cancer patients): safe and well tolerated

Molecule: CC(=O)N[C@H]1[C@@H](O[C@H](C)[C@H](NC(=O)[C@H](CC(=O)O)NC(=O)[C@@H]2CCCN2C(=O)[C@H](Cc2ccccc2)NC(=O)[C@H](CC(C)C)NC(=O)[C@@H](N)Cc2ccccc2)C(=O)N[C@@H](CCCNC(=N)N)C(=O)N[C@@H](Cc2ccc(O)cc2)C(=O)N[C@H](C(=O)O)C(C)C)O[C@H](CO)[C@H](O)[C@@H]1O [FLFPD(Tn-T)RYV] (H-FLFPDT(αGalNAc)RYV-OH; N-terminus and C-terminus assumed)
- solubility when diluted in Dimethylsulfoxide (DMSO) [3]: very soluble
- A2 affinity (in words) (A2 class I MHC molecules): very high affinity

Molecule: FAPG (β-Gal-[1->3]-α-GalNAc-O-S)YPAL
- cytolytic response of TF-specific CTL clones to antigen (51Cr release, net lysis) [1]: good cytolytic activity
